Source: paper PMC6158019 (Cancer cell, 2018)
Where two headings read alike, the source gives them in different places. Values belong to the compound of their own block, whether it stands above or below them.

Legend:
[1] = tested on: RMS orthotopic xenografts SJRHB000026_X1, SJRHB012_Y, SJRHB013757_X2, SJRHB013759_X1; format: in vivo, mouse; conditions: single-agent groups
[2] = tested on: RMS cell lines and primary cultures of O-PDX cells; assay: General drug screening; format: cell-based, human; conditions: for in vitro activity in RMS O-PDX drug screening: primary cultures of RMS O-PDXs and cell lines
[3] = tested on: RMS cell lines (RD cells); assay: Cell cycle; format: cell-based, human; conditions: 1 μM AZD1775, 24 or 48 hr
[4] = abemaciclib, mice; ref Raub et al., 2015; cited from earlier work
[5] = ref Patnaik et al., 2016, cited from earlier work
[6] = mouse, in vivo
[7] = Abemaciclib plasma and tumor PK in tumor-bearing mice; conditions: female, athymic nude, mouse, po, 50 mg/kg
RMS O-PDXs = conditions: previous preclinical phase 2 studies; ref Stewart et al., 2017; cited from earlier work
[8] = ref Goldman et al., 2013, cited from earlier work
[9] = Preclinical phase 1 tolerability study; conditions: GSP 10 mg/kg, AZD1775 60 mg/kg twice daily, in combination regimens
[10] = species not stated; cited from earlier work
[11] = Ganetespib plasma and tumor PK in tumor-bearing mice; format: in vivo, mouse; conditions: for half-life: female, athymic nude, mouse, iv, 150 mg/kg
in vivo [12] = conditions: female, athymic nude
[13] = Palbociclib human plasma PK; format: in vivo; conditions: patients, 125 mg PO QD, standard calculations
[14] = ref palbociclib FDA NDA reviews, cited from earlier work
[15] = mice, ref Parrish et al., 2015; cited from earlier work
[16] = Trametinib human plasma PK; format: in vivo; conditions: patients, standard calculations
in vivo [17] = conditions: female, athymic nude, mouse, po, 0.1 mg/kg
[18] = cited from earlier work; for mean plasma CL/F: population PK

Structure (SMILES): C=CCn1c(=O)c2cnc(Nc3ccc(N4CCN(C)CC4)cc3)nc2n1-c1cccc(C(C)(C)O)n1 [AZD1775]
overall survival compared with placebo [1]: not different from placebo
in vitro activity in RMS O-PDX drug screening [2]: significant in vitro activity
cell cycle and nuclear effects [3]: G2/M phase arrest, mitotic catastrophe, and nuclear fragmentation

Structure (SMILES): CCN1CCN(Cc2ccc(Nc3ncc(F)c(-c4cc(F)c5nc(C)n(C(C)C)c5c4)n3)nc2)CC1 [abemaciclib]
mean in vitro fraction unbound in the plasma (Fu,p) [4]: 0.054
geometric mean total plasma AUCtau at steady state ([5]; 200 mg PO BID): 3000 ng·h/mL
geometric mean trough concentration ([5]; 200 mg PO BID): 197 ng/mL
maximum tolerated dose (MTD) ([5]; Phase 1, single agent, continuous): 200 mg PO BID
rounded and recommended MED ([6]; female, athymic nude): 7.5-15 mg/kg PO BID
plasma AUC lower than that reported by Tate ([6]; female, athymic nude, po, 50 mg/kg): ~ 3.8 fold
murine equivalent dose (MED) providing a similar total plasma AUC [6]: 14.4 mg/kg
half-life ([7]; plasma): 5.2 h
half-life ([7]; tumor): 5.98 h

Structure (SMILES): CC(C)C[C@H](NC(=O)[C@H](Cc1ccccc1)NC(=O)c1cnccn1)B(O)O [bortezomib]
efficacy in vivo (RMS O-PDXs): failed to show efficacy in vivo

Structure (SMILES): CC(C)c1cc(-c2n[nH]c(=O)n2-c2ccc3c(ccn3C)c2)c(O)cc1O [ganetespib]
overall survival compared with placebo [1]: not different from placebo
sensitivity of RMS cells relative to other pediatric solid tumors ([2]; RMS cell lines and primary cultures of O-PDX cells): more sensitive
in vitro activity in RMS O-PDX drug screening [2]: significant in vitro activity
recommended Phase 2 dose (RP2D) ([8]; IV once weekly for 3 weeks of a 4-week cycle): 200 mg/m^2
estimated human total plasma AUCinf ([8]; at 200 mg/m^2): approximately 7000 hr-ng/mL
major adverse events ([8]; patients): diarrhea and fatigue
tolerability [9]: well tolerated in all groups
plasma protein binding [10]: high
increase in plasma Cmax for a 3-fold increase in dose ([11]; 50 to 150 mg/kg IV, 10 min after injection, data not shown): ~17 fold
half-life ([11]; plasma): 2.03 h
half-life ([11]; tumor): 8.42 h
murine equivalent dose (MED) providing a similar total plasma AUCinf ([11]; vs human 200 mg/m^2): 12.8 mg/kg

back-estimated mouse plasma Cavg (in vivo [12]; 10 mg/kg): 76.9 ng/mL
murine equivalent dose (MED) (in vivo [12]; mouse): 10 mg/kg
CL/F (in vivo [12]; mouse, po, 16 mg/kg): 91.2 mL/min/kg
Kp (in vivo [12]; mouse, po, 16 mg/kg): ~6
half-life (in vivo [12]; mouse, po, 16 mg/kg): 2.61 h
estimated total plasma Cavg,ss [13]: about 85 ng/mL
Structure (SMILES): CC(=O)c1c(C)c2cnc(Nc3ccc(N4CCNCC4)cn3)nc2n(C2CCCC2)c1=O [palbociclib]
estimated total plasma AUCtau at steady state ([14]; patients, 125 mg PO QD): 2080 ng·h/mL
mean plasma CL/F ([14]; typical patient, population PK): 60.2 L/h
apparent terminal half-life (T1/2), literature [15]: approximately 3.4 hr

Structure (SMILES): Cc1[nH]c2ccccc2c1CCNCc1ccc(/C=C/C(=O)NO)cc1 [panobinostat]
efficacy in vivo (RMS O-PDXs): failed to show efficacy in vivo

Structure (SMILES): CC(=O)Nc1cccc(-n2c(=O)n(C3CC3)c(=O)c3c(Nc4ccc(I)cc4F)n(C)c(=O)c(C)c32)c1 [trametinib]
estimated total plasma Cavg,ss [16]: about 15.1 ng/mL
Kp (in vivo [17]): 5.49
mean AUC ([18]; across genders, 2 mg PO QD, ref Ouellet et al., 2016): 365 ng·h/mL
maximum tolerated dose (MTD) ([18]; putative single agent): 2 mg PO QD
mean plasma CL/F ([18]; typical female patient, ref Ouellet et al., 2016): 4.91 L/h
mean plasma CL/F ([18]; typical male patient, ref Ouellet et al., 2016): 6.19 L/h
